Measurements published in patent US6964949B2, “Pharmaceutical compositions for promoting the growth of gram-positive bacilli and increasing the acidity in the vagina and the use thereof” (Shanghai Jiao Da Onlly Co., Ltd., priority 2000, dated 2005).

System: vaginal secretion specimen of a patient suffering from typical bacterial vaginosis
Experiment: Experimental Example 1: pH of culture samples (production of acids)
Assay type: cell-based
Details: 10.0% sucrose, 1.0% yeast extract, 1.6% xanthan gum, pH 5.0, anaerobic, 37° C.
Experimental: • (1) The preparation of the composition: Sucrose was used to prepare the following composition according to the method mentioned above: sucrose 10.0% (W/V), yeast extract 1.0% (W/V), Xanthan gum 1.6% (W/V), pH 5.0; then filled the composition into the tubes after sterilization, with each tube containing 5 ml, and pre-reduced for use. • (2) Specimen suspension: Vaginal secretion was taken from one of the patients suffering from typical bacterial vaginosis with a cotton swab, then the swab was washed in 2 ml sterilized Trypcase-soy Broth immediately, and thus the specimen suspension was ready. […] The tubes were placed in an incubator for cultivation, at 37° C., anaerobically. Then, culture samples were taken from the tubes at 10 hours and 24 hours later respectively. The Gram smears of the samples were observed and the pH values of the samples were measured.

`OC[C@H]1O[C@@](CO)(O[C@H]2O[C@H](CO)[C@@H](O)[C@H](O)[C@H]2O)[C@@H](O)[C@@H]1O` [Sucrose, sucrose] was tested, and the “pH, 10 hours-culture” value (10 hours) was 5.0 and the “pH, 24 hours-culture” value (24 hours) was 4.0.
